Where “and” joins values, the source holds several entries; their conditions need not be identical. Equal values may be shown once.
System: 885724-159-R-J1-PDC KRAS PDC multicell spheroid viability
Assay: Anticancer human tumor 885724-159-R-J1-PDC patient-derived pancreatic adenocarcinoma cell line growth inhibition [KRAS2]
Settings: for viability, T/C: stronger effect = lower value
Source text: Multicellular complex tumor spheroid response to RAS pathway inhibitors in combination with a targeted agents in patient-derived cell lines with oncogenic KRAS variants from multiple cancer types
A high-throughput screen of multi-cell type tumor spheroids was designed to identify active combinations of targeted small molecules and KRAS pathway inhibitors. Complex spheroids include a stromal component modeled by human endothelial cells (HUVEC) and fibroblasts modeled by human mesenchymal stem cells (MSCs). The concentration ranges selected for each drug and investigational agent were based upon clinically achievable concentrations if the clinical Cmax of the agent was known.
Compounds. The drugs and investigational agents: BI-3406 (NSC825286), BAY-293 (NSC824723), batoprotafib (TNO155; NSC825523), sotorasib (AMG 510; NSC818433), MRTX1257 (NSC819558), elimusertib (BAY 1895344; NSC800525), molibresib (GSK525762; NSC774829), temuterkib (LY3214996; NSC803410), venetoclax (NSC766270), alisertib (NSC759677), olaparib (NSC753686), talazoparib (NSC767125), erdafitinib (NSC781556), ipatasertib (NSC767898), cabozantinib (NSC761068), nintedanib (NSC756659), abemaciclib (NSC768073), docetaxel (NSC628503), trametinib (NSC758246), and sapanisertib (NSC764658) were obtained from the National Cancer Institute (NCI) Developmental Therapeutics Program Chemical Repository. The FDA-approved anticancer drug set is available from the Developmental Therapeutics Program. […] The stock solutions were prepared in dimethyl sulfoxide (DMSO, Sigma-Aldrich, St. Louis, MO, cat. D2650) at 800-fold the tested concentration and stored at -70 degrees C prior to their use. All drugs and investigational agents were tested over a range starting from a high concentration at or near the clinical Cmax and decreasing in half-log increments. If the clinical Cmax for an agent had not been determined, the highest concentration tested was 10 microM.
Cell Culture. All cells were maintained in an incubator at 37 degrees C and 5% CO2 with 95% humidity. The PDC lines were cultured according to standard operating procedures established by the NCI PDMR (https://pdmr.cancer.gov/sops/default.htm). Briefly, all PDCs were thawed and cultured in Matrigel-coated flasks prepared with a working solution of 1X Ham's F-12 nutrient mix, without supplementation (Invitrogen, Waltham, MA, cat. 11765054), 100 U/mL penicillin-streptomycin (Invitrogen, cat. 15140122), and 2.5% Matrigel (Corning Inc., Corning, NY, cat. 354248) for the first three passages. All PDCs were cultured in complete DMEM/F-12 media containing advanced DMEM/F-12 (Invitrogen, cat. 12634028), 4.9% defined fetal bovine serum, heat inactivated (HyClone Laboratories Inc., Logan, UT, cat. SH30070.03HI), 389 ng/mL hydrocortisone (Sigma-Aldrich, cat. H4001), 9.7 ng/mL human EGF recombinant protein (Invitrogen, cat. PHG0313), 23.4 microg/mL adenine (Sigma-Aldrich, cat. A2786), 97.3 U/mL penicillin-streptomycin (Invitrogen, cat. 15140122), 1.9 mM L-glutamine (Invitrogen, cat. 25030081), and 9.7 microM Y-27632 dihydrochloride (Tocris Bioscience, Bristol, United Kingdom, cat. 1254). The PDCs were cultured in complete DMEM/F12 media without 9.7 microM Y-27632 dihydrochloride for at least two passages prior to the screen. The established cell line HOP-62 was cultured in RPMI 1640 medium, HEPES (Invitrogen, cat. 22400105) with 10% defined fetal bovine serum (HyClone Laboratories Inc., cat. SH30070.03) and 2 mM L-glutamine (Invitrogen, cat. 25030081). The pooled donor HUVEC were cultured in endothelial cell growth medium 2 (PromoCell, Heidelberg, Germany, cat. C-22011) and the hMSC were cultured in mesenchymal stem cell growth medium 2 (PromoCell, cat. C-28009). For all experiments, HUVEC and hMSC were used at passages </=5, while the malignant cell lines were used at passages </=15. […]

[1] = curve of first compound, second compound 0.1 µM
[2] = curve of first compound, second compound 0.316 µM
[3] = curve of first compound, second compound 1 µM
[4] = curve of first compound, second compound 3.16 µM
[5] = curve of first compound, second compound 10 µM
[6] = second compound 0.1 µM, first compound 0.0316 µM
[7] = second compound 0.1 µM, first compound 0.1 µM
[8] = second compound 0.1 µM, first compound 0.316 µM
[9] = second compound 0.1 µM, first compound 1 µM
[10] = second compound 0.316 µM, first compound 0.0316 µM
[11] = second compound 0.316 µM, first compound 0.1 µM
[12] = second compound 0.316 µM, first compound 0.316 µM
[13] = second compound 0.316 µM, first compound 1 µM
[14] = second compound 1 µM, first compound 0.0316 µM
[15] = second compound 1 µM, first compound 0.1 µM
[16] = second compound 1 µM, first compound 0.316 µM
[17] = second compound 1 µM, first compound 1 µM
[18] = second compound 3.16 µM, first compound 0.0316 µM
[19] = second compound 3.16 µM, first compound 0.1 µM
[20] = second compound 3.16 µM, first compound 0.316 µM
[21] = second compound 3.16 µM, first compound 1 µM
[22] = second compound 10 µM, first compound 0.0316 µM
[23] = second compound 10 µM, first compound 0.1 µM
[24] = second compound 10 µM, first compound 0.316 µM
[25] = second compound 10 µM, first compound 1 µM
[26] = second compound 0.1 µM, first compound 3.16 µM
[27] = second compound 0.1 µM, first compound 10 µM
[28] = second compound 0.316 µM, first compound 3.16 µM
[29] = second compound 0.316 µM, first compound 10 µM
[30] = second compound 1 µM, first compound 3.16 µM
[31] = second compound 1 µM, first compound 10 µM
[32] = second compound 3.16 µM, first compound 3.16 µM
[33] = second compound 3.16 µM, first compound 10 µM
[34] = second compound 10 µM, first compound 3.16 µM
[35] = second compound 10 µM, first compound 10 µM
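Note: spheroids exposed to agents for 7 days before readout.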

SMILES	IC50 [1]	IC50 [2]	IC50 [3]	IC50 [4]	IC50 [5]	viability, T/C [6]	viability, T/C [7]	viability, T/C [8]	viability, T/C [9]	viability, T/C [10]	viability, T/C [11]	viability, T/C [12]	viability, T/C [13]	viability, T/C [14]	viability, T/C [15]	viability, T/C [16]	viability, T/C [17]	viability, T/C [18]	viability, T/C [19]	viability, T/C [20]	further results
CCN1CCN(Cc2ccc(Nc3ncc(F)c(-c4cc(F)c5nc(C)n(C(C)C)c5c4)n3)nc2)CC1 + COc1cc2nc(C)nc(NC(C)c3cc(N)cc(C(F)(F)F)c3)c2cc1OC1CCOC1	> 1000 nM	> 1000 nM	> 1000 nM	> 1000 nM	< 3.16 nM	84.2%	80.7%	80.7%	86.1%	79.9%	79%	75.2%	76.6%	78.6%	73.2%	72.4%	80.8%	76%	63%	71.5%	viability, T/C (second compound 0.1 µM, first compound 0.00316 µM): 88.8%; viability, T/C (second compound 0.1 µM, first compound 0.01 µM): 89.7%; viability, T/C (second compound 0.316 µM, first compound 0.00316 µM): 96.3%; viability, T/C (second compound 0.316 µM, first compound 0.01 µM): 86.2%; viability, T/C (second compound 1 µM, first compound 0.00316 µM): 90%; viability, T/C (second compound 1 µM, first compound 0.01 µM): 86.9%; viability, T/C (second compound 3.16 µM, first compound 0.00316 µM): 80.3%; viability, T/C (second compound 3.16 µM, first compound 0.01 µM): 91.6%; viability, T/C [21]: 73.1%; viability, T/C (second compound 10 µM, first compound 0.00316 µM): 38.2%; viability, T/C (second compound 10 µM, first compound 0.01 µM): 35.9%; viability, T/C [22]: 28.3%; viability, T/C [23]: 36.6%; viability, T/C [24]: 17.6%; viability, T/C [25]: 7.18%
CCN1CCN(Cc2ccc(Nc3ncc(F)c(-c4cc(F)c5nc(C)n(C(C)C)c5c4)n3)nc2)CC1	–	–	–	–	–	–	–	–	–	–	–	–	–	–	–	–	–	–	–	–	viability, T/C (compound 0.00316 µM): 108% (2×) and 101% and 103% (2×); viability, T/C (compound 0.01 µM): 100% [middle of 5 runs]; viability, T/C (compound 0.0316 µM): 89.9% [middle of 5 runs]; viability, T/C (compound 0.1 µM): 88.7% [middle of 5 runs]; viability, T/C (compound 0.316 µM): 92.5% [middle of 5 runs]; viability, T/C (compound 1 µM): 94% [middle of 5 runs]; IC50 (curve of compound): > 1000 nM
CC1(C)CCC(CN2CCN(c3ccc(C(=O)NS(=O)(=O)c4ccc(NCC5CCOCC5)c([N+](=O)[O-])c4)c(Oc4cnc5[nH]ccc5c4)c3)CC2)=C(c2ccc(Cl)cc2)C1 + C=CC(=O)N1CCN(c2nc(=O)n(-c3c(C)ccnc3C(C)C)c3nc(-c4c(O)cccc4F)c(F)cc23)C(C)C1	7090 nM	7140 nM	5360 nM	9700 nM	5480 nM	111%	118%	114%	108%	117%	114%	111%	114%	122%	117%	118%	112%	109%	120%	113%	viability, T/C [26]: 91.2%; viability, T/C [27]: 32.3%; viability, T/C [28]: 89.3%; viability, T/C [29]: 33.8%; viability, T/C [30]: 72.8%; viability, T/C [31]: 23.1%; viability, T/C [21]: 114%; viability, T/C [32]: 80.8%; viability, T/C [33]: 49.2%; viability, T/C [22]: 91.1%; viability, T/C [23]: 68.7%; viability, T/C [24]: 76.9%; viability, T/C [25]: 77.8%; viability, T/C [34]: 65.3%; viability, T/C [35]: 33%
COC(=O)c1ccc2c(C(=Nc3ccc(N(C)C(=O)CN4CCN(C)CC4)cc3)c3ccccc3)c(O)[nH]c2c1 + CC1OCC2(CCN(c3cnc(Sc4ccnc(N)c4Cl)c(N)n3)CC2)C1N	2020 nM	1820 nM	1520 nM	1400 nM	1090 nM	95%	95.8%	92.2%	94.2%	91.4%	84.9%	80.9%	86.4%	67.3%	69.3%	73.8%	70.2%	66.9%	74.1%	78.2%	viability, T/C [26]: 21.9%; viability, T/C [27]: 0.87%; viability, T/C [28]: 17.1%; viability, T/C [29]: 0.39%; viability, T/C [30]: 14.8%; viability, T/C [31]: 1.25%; viability, T/C [21]: 66%; viability, T/C [32]: 10.4%; viability, T/C [33]: 0.29%; viability, T/C [22]: 62%; viability, T/C [23]: 68.8%; viability, T/C [24]: 61.4%; viability, T/C [25]: 53.9%; viability, T/C [34]: 2.07%; viability, T/C [35]: 0.63%
CC1OCC2(CCN(c3cnc(Sc4ccnc(N)c4Cl)c(N)n3)CC2)C1N (configuration not stated) + COc1cc2nc(C)nc(NC(C)c3cc(N)cc(C(F)(F)F)c3)c2cc1OC1CCOC1	> 10000 nM	> 10000 nM	> 10000 nM	> 10000 nM	< 31.6 nM	90%	84.8%	76.7%	67.1%	93.4%	82.7%	73.2%	67.6%	83.4%	82.5%	70%	62.7%	76.5%	73.1%	69.6%	viability, T/C [26]: 62.1%; viability, T/C [27]: 53.7%; viability, T/C [28]: 57.2%; viability, T/C [29]: 54.7%; viability, T/C [30]: 57%; viability, T/C [31]: 51.4%; viability, T/C [21]: 59%; viability, T/C [32]: 55.1%; viability, T/C [33]: 51.6%; viability, T/C [22]: 22.7%; viability, T/C [23]: 21.7%; viability, T/C [24]: 19.5%; viability, T/C [25]: 13.1%; viability, T/C [34]: 13.5%; viability, T/C [35]: 5.33%
